Results taken from publication PMC6556873, “Rapid Covalent-Probe Discovery by Electrophile-Fragment Screening” (Journal of the American Chemical Society, 2019).
Like-named read-outs stand apart in the source and are kept apart here.

Tests used:
in vitro [1] = assay: in vitro; design: species or system HB2, CCD841; details: human, hek293 cells
in vitro [2] = assay: in vitro; design: species or system HB2, HEK293; details: human, ccd841 cells
in vitro [3] = assay: in vitro; design: species or system CCD841, HEK293; details: human, hb2 cells, read-out: HB-2 Cells Viability (%)
BSA = target: T1, BSA (Bos taurus, UniProt P02769); design: Intact protein LC/MS covalent labelling, fragments in pools of five, 200 uM each, 4 °C; details: 24 h, 4 °C, pool of five; 200 µM; covalent
T1 construct: gene ALB
T1 sequence (P02769 whole entry, the tested form may be a part): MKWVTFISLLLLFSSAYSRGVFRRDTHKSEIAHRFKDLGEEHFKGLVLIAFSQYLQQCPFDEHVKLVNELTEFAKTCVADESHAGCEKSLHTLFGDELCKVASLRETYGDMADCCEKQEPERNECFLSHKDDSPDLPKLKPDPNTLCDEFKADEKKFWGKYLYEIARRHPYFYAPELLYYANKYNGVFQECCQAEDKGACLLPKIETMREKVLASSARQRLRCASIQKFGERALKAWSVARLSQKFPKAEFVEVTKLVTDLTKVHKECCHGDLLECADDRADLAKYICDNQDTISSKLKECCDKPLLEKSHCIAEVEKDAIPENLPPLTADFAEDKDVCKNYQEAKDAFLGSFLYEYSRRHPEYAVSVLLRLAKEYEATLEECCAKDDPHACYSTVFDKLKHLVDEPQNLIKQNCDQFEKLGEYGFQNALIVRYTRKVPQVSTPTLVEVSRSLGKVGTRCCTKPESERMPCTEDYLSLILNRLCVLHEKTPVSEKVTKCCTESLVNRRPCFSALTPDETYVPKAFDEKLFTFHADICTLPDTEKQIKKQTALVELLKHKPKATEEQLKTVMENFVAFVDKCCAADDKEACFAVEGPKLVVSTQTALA

NUDT7 = target: T2, NUDT7 (Homo sapiens, UniProt P0C024); design: Intact protein LC/MS covalent labelling, fragments in pools of five, 200 uM each, 4 °C; details: 24 h, 4 °C, pool of five; 200 µM; covalent
T2 construct: residues 14-235, E. coli, pNIC28-Bsa4, N-terminal His6 tag removed by TEV, construct 26672 Da
T2 sequence (P0C024 14-235): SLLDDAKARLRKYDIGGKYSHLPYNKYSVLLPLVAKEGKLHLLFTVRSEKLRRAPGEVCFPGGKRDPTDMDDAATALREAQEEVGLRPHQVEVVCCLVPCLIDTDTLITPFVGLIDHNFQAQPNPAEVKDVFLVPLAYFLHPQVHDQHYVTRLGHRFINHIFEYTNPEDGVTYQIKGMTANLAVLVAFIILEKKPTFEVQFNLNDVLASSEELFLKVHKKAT

PCAF = target: T3, PCAF (Homo sapiens, UniProt Q92831); design: Intact protein LC/MS covalent labelling, fragments in pools of five, 200 uM each, 4 °C; details: 24 h, 4 °C, pool of five; 200 µM; covalent
T3 construct: gene KAT2B
T3 sequence (Q92831 whole entry, the tested form may be a part): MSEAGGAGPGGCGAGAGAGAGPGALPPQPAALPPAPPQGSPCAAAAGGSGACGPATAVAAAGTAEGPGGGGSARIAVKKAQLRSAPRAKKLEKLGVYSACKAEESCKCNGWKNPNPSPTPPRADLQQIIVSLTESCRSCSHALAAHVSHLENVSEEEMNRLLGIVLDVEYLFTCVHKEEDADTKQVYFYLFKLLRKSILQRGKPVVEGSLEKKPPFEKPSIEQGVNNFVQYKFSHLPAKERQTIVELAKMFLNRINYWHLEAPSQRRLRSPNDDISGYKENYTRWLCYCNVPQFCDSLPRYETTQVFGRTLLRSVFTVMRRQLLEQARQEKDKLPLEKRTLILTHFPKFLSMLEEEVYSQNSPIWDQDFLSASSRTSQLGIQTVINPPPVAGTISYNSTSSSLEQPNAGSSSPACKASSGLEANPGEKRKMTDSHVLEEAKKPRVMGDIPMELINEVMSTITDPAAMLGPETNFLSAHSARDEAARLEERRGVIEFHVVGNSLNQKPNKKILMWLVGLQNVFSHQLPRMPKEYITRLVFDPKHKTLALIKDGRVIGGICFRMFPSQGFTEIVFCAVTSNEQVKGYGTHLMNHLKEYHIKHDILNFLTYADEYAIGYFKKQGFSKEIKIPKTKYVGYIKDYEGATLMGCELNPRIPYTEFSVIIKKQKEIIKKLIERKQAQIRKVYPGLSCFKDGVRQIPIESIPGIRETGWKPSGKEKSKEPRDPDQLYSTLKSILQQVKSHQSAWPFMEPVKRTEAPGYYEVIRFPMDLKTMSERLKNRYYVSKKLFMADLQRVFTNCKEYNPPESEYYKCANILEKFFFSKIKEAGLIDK

OTUB2 (OTUB2A) = target: T4, OTUB2 (OTUB2A) (Homo sapiens, UniProt Q96DC9); design: Intact protein LC/MS covalent labelling, fragments in pools of five, 200 uM each, 4 °C; details: 24 h, 4 °C, pool of five; 200 µM; covalent
T4 construct: full length residues 1-234, E. coli BL21(DE3)-R3, His tag removed by TEV, construct 27312 Da
T4 sequence (Q96DC9 1-234): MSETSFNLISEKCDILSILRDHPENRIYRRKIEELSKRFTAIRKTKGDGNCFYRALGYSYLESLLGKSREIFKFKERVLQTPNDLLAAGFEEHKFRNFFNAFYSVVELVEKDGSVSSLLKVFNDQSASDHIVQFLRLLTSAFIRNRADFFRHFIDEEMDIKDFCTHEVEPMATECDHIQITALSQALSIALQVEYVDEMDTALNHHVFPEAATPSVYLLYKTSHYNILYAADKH

| Structure (SMILES) | BSA (BSA) | NUDT7 (NUDT7) | PCAF (PCAF) | OTUB2 (OTUB2 (OTUB2A)) | viability at 48 h, 10 µM (in vitro [1]) [%] | viability at 48 h, 10 µM (in vitro [2]) [%] | viability at 48 h, 10 µM (in vitro [3]) [%] |
| --- | --- | --- | --- | --- | --- | --- | --- |
| CN(Cc1ccsc1)C(=O)CCl [PCM-0102865] | 0 | 0.09 | 0 | 0 | 34 | 76.1 | 49.6 |
| CC(=O)c1sc(NC(=O)CCl)nc1C [PCM-0102838] | 0 | 0.12 | 0 | 0 | 87.2 | 92.1 | 96 |
| CC(NC(=O)CCl)C1CC2CCC1C2 (stereo not drawn) [PCM-0102572] | 0 | 0 | 0 | 0 | 80.7 | 91.1 | 92 |
| O=C(CCl)NC(=O)NC12CC3CC(CC(C3)C1)C2 [PCM-0102360] | 0 | 0 | 0 | 0.12 | 46.7 | 73.7 | 3.1 |
| Cc1cccc(C(C)C)c1NC(=O)CCl [PCM-0102358] | 0 | 0 | 0 | 0 | 76.5 | 89.3 | 102 |
| Cc1n[nH]c(=O)c2c(NC(=O)CCl)oc(C)c12 [PCM-0102226] | 0 | 0 | 0 | 0 | 104 | 112 | 108 |
| Cc1cc(C)c(C(C)NC(=O)CCl)cc1C (stereo not drawn) [PCM-0102879] | 0 | 0 | 0 | 0.17 | 59.6 | 83.7 | 87.3 |
| Cc1ccsc1CN(C)C(=O)CCl [PCM-0102785] | 0 | 0.2 | 0 | 0 | 36 | 56.7 | 22.2 |
| CC(C)(C)C(=O)NC(=O)CCl [PCM-0103021] | 0 | 0 | 0 | 0 | 98.9 | 116 | 105 |
| COc1cc(Cl)c(C)cc1NC(=O)CCl [PCM-0102210] | 0 | 0 | 0 | 0.25 | 5.5 | 64.1 | 8.5 |
| Cc1ccc(NC(=O)CCl)c(Br)c1 [PCM-0102196] | 0 | 0.2 | 0 | 0.14 | 45.5 | 87.6 | 49.2 |
| CC(C)C(=O)NNC(=O)CCl [PCM-0103014] | 0 | 0 | 0 | 0.09 | 126 | 95.1 | 98.8 |
| COC(=O)C1(NC(=O)CCl)CCCCC1 [PCM-0102734] | 0 | 0 | 0 | 0 | 112 | 95.1 | 98.3 |
| CSc1ccc(NC(=O)CCl)cc1 [PCM-0102772] | 0 | 0.13 | 0 | 0.28 | 3 | 51.2 | 15.2 |
| O=C(CCl)Nc1ccc([N+](=O)[O-])cc1Br [PCM-0102848] | 0 | 0.24 | 0 | 0 | 47 | 68.4 | 54.1 |

The next lines start with results.

| BSA (BSA) | NUDT7 (NUDT7) | PCAF (PCAF) | OTUB2 (OTUB2 (OTUB2A)) | Structure (SMILES) | viability at 48 h, 10 µM (in vitro [1]) [%] | viability at 48 h, 10 µM (in vitro [2]) [%] | viability at 48 h, 10 µM (in vitro [3]) [%] |
| --- | --- | --- | --- | --- | --- | --- | --- |
| 0 | 0.79 | 0 | 0 | C=CC(=O)NC(=O)NC12CC3CC(CC(C3)C1)C2 [PCM-0102106] | 42 | 80.9 | 26.6 |
| 0 | 0 | 0 | 0 | C=CC(=O)N1CCN(C(=O)C2COc3ccccc3O2)CC1 (stereo not drawn) [PCM-0102999] | 88.3 | 112 | 100 |
| 0 | 0.2 | 0 | 0 | Cc1ccc(C2=NN(C(=O)CCl)C(c3ccco3)C2)o1 (stereo not drawn) [PCM-0102102] | 1.6 | 12.7 | 9.4 |
| 0 | 0 | 0 | 0 | C=CC(=O)Nc1ccc(F)c(F)c1 [PCM-0102385] | 66.1 | 112 | 104 |
| 0 | 0 | 0 | 0 | CC(C)N(C)C(=O)C1CCN(C(=O)CCl)CC1 [PCM-0102974] | 79.8 | 84 | 86.7 |
| 0 | 0.15 | 0 | 0 | O=C(CCl)Nc1ccccc1Br [PCM-0102312] | 92.9 | 89.7 | 90.8 |
| 0 | 0.27 | 0 | 0.67 | O=C(CCl)Nc1cc2c(cc1Br)OCCO2 [PCM-0102299] | 12.6 | 62.8 | 15.8 |
| 0 | 0 | 0 | 0.2 | O=C(CCl)NNC(=O)c1ccccc1 [PCM-0102240] | 92.4 | 85.6 | 98.1 |
| 0 | 0 | 0 | 0 | Cc1ccc(S(=O)(=O)N2CCN(C(=O)CCl)CC2)c(C)c1 [PCM-0102628] | 82.4 | 82.6 | 35.6 |
| 0 | 0 | 0 | 0 | C=CC(=O)NCC1CCOC2(CCC2)C1 (stereo not drawn) [PCM-0102523] | 90.4 | 117 | 102 |
| 0 | 0 | 0 | 0.09 | C=CC(=O)N1CCC(n2cc(C)cn2)CC1 [PCM-0102423] | 92.5 | 108 | 104 |
| 0 | 0.12 | 0 | 0 | O=C(CCl)Nc1cc2c(cc1Cl)OCCO2 [PCM-0102585] | 15 | 68 | 38.7 |
| 0 | 0.14 | 0 | 0.39 | O=C(CCl)N1CCc2sccc2C1 [PCM-0102123] | 6.6 | 73.1 | 9.2 |
| 0 | 0.1 | 0 | 0 | CN(C)C(=O)c1cccc(NC(=O)CCl)c1 [PCM-0102345] | 13.8 | 61.4 | 52.9 |
| 0 | 0.25 | 0 | 0 | O=C(CCl)Nc1ccc(Cl)nc1 [PCM-0102891] | 9 | 33.2 | 31.5 |
| 0 | 0.26 | 0 | 0.25 | O=C(CCl)Nc1nc(-c2c[nH]c3ccccc23)cs1 [PCM-0102233] | 6.5 | 65 | 4.8 |
| 0 | 0.21 | 0 | 0 | O=C(O)C1Cc2ccccc2CN1C(=O)CCl (stereo not drawn) [PCM-0102761] | 95.9 | 91.2 | 98.1 |
| 0 | 0.16 | 0 | 0 | C=CC(=O)N1CCN(C(=O)OC(C)(C)C)CC1 [PCM-0102419] | 90.3 | 104 | 100 |
